# From patent publication US20070078434A1, “Indications For Local Transport of Anaesthetic Agents By Electrotransport Devices” (Vyteris, Inc., priority 2005, published 2007)
# Structures can show the parent of a compound that is named as a salt. Where two headings read alike, the source gives them in different places.
# How the values were obtained:
# [1] = iontophoresis in vitro across human skin; cited from earlier work
# [2] = codelivered with 300 mg of lidocaine; cited from earlier work
# subjects = test: Study 16: Platform IIA under various treatment conditions; format: in vivo, human; conditions: patches containing lidocaine 10% with and without epinephrine
# anesthetized guinea pigs [3] = conditions: guinea pig, in vivo
# anesthetized guinea pigs [4] = test: In vivo delivery of radiolabeled drug into anesthetized guinea pigs
smiles,measurement,setting,value
CCN(CC)CCOC(=O)c1ccc(N)cc1 [procaine],cumulative delivery compared with lidocaine,[1],slightly greater delivery
CCCNC(C)C(=O)Nc1ccccc1C (stereo not shown) [prilocaine],cumulative delivery compared with lidocaine,[1],slightly greater delivery
CCCN(CC)C(CC)C(=O)Nc1c(C)cccc1C (stereo not shown) [etidocaine],cumulative delivery compared with lidocaine,[1],slightly greater delivery
"CNCC(O)c1ccc(O)c(O)c1 [epinephrine, 1,2 Beizenediol, 4-[1-hydroxy-2-(methylamino)ethyl]-,(R)—, [R—(R*,R*)]-2,3-dihydroxybutanedioate (1:1) (salt)]",maximum recommended dose,[2],150 µg
same,effect of epinephrine on the anaesthetic effect of lidocaine,subjects,significantly enhanced
same,amount delivered per patch,anesthetized guinea pigs [3],2.4 µg
"CCN(CC)CC(=O)Nc1c(C)cccc1C.Cl [lidocaine, 2-(Diethylamino)-2′,6′-acetoxylidide mono hydrochloride, monohydrate]",amount delivered per patch,anesthetized guinea pigs [4],467 µg
